Reference: patent publication US8536210B2, “Compounds for inhibiting semicarbazide-sensitive amine oxidase (SSAO)/vascular adhesion protein-1 (VAP-1) and uses thereof for treatment and prevention of diseases” (Semmelweis Egyetem, priority 2008, dated 2013)

Tests used:
[1] = molecular target: human recombinant VAP-1 (SSAO/VAP-1 enzyme) (Homo sapiens (Human), UniProt Q16853); test: In vitro inhibition of SSAO activity on human recombinant VAP-1 (colorimetric, benzylamine substrate); format: biochemical; conditions: for IC50: recombinant SSAO/VAP-1 in CHO cell homogenate, 1 mM benzyl amine
human recombinant VAP-1 (SSAO/VAP-1 enzyme), sequence (Q16853 whole entry): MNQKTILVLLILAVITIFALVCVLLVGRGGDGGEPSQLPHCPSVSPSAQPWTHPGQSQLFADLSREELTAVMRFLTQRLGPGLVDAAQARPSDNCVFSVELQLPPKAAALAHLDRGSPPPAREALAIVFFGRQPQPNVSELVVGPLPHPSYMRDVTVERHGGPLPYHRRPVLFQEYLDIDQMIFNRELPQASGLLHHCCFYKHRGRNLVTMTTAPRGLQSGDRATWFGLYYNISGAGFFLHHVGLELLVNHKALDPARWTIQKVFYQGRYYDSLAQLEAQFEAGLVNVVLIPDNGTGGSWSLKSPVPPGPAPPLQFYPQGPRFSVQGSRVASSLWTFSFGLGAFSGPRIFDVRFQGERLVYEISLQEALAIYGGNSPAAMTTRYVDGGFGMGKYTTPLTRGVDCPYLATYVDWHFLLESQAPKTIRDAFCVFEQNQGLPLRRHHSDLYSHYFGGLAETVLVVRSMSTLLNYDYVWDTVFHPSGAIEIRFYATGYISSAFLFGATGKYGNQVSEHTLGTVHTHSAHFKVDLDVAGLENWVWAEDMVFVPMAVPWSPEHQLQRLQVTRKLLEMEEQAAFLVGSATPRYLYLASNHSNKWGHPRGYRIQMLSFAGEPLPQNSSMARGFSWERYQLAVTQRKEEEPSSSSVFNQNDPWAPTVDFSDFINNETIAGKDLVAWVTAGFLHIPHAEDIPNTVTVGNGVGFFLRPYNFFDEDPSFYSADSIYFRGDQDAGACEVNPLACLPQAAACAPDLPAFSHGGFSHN
Experimental: For determining the SSAO/VAP-1 activity, the colorimetric method described by Holt, A (Holt, A., Anal. Biochem. 244, 384, 1997) for monoamine oxidase and analogous enzymes was used. Recombinant SSAO/VAP-1 enzyme was expressed in Chinese Hamster Ovary cells (CHO). These cells and cell cultures have been described earlier (Smith, D. J. et al, J. Exp. Med. 188, 17, 1998). The cell homogenate was prepared as follows: a suspension was made of approximately 3.6×10^8 cells in 25 ml lysation buffer (150 mM NaCl, 10 mM Tris-base pH 7.2, 1.5 mM MgCl2, 1% NP40), that was stirred for 1 night and incubated at 4° C. The homogenate was centrifugated (18000 g). The supernatant was used directly afterwards for the measurement. SSAO/VAP-1 activity measurement was carried out as follows on 96 precisely microtitrated plates, a given amount of inhibitor was added to each. The amount of the inhibitors varied among the measurements, the final concentration being between 1 nM and 50 μM in general, in 20 μl aqueous total volume for all cases. Then 0.2 M potassium phosphate buffer (pH=7.6) was added, to obtain a total volume of 200 μl 50 μl freshly prepared chromogen solution was given, which contains 1 mM of vanillic acid, 500 μM 4-aminoantipyrin, 8 U/ml horse radish peroxidase, and such an amount of SSAO/VAP-1 containing CHO cell homogenate that causes a 0.6 A-490 per h change, the latter being in the linear coherence scope of the method. The plates were incubated for 30 min at 37° C. and the background absorbance was measured at 490 nm by a Wallac Victor II apparatus. For starting the enzyme reaction, 20 μl 10 mM benzyl amine solution was added, the final concentration of which was therefore 1 mM. The plates were reincubated at 37° C. for 1 h. The increase in the absorbance showing the SSAO/VAP-1 activity was measured at 490 nm. The inhibition was calculated in the % of the control absorbance corrected with the background absorbance, IC50 values were calculated using GraphPad Prism.

[2] = system: acetic acid induced writhing syndrome; test: Inhibition of acetic acid induced writhing on mice; format: in vivo; conditions: 20 minutes prior to acetic acid
Experimental: The method described by Van der Wende (Van der Vende C, Margolin S, Fed. Proc., 15, 494, 1956) with the modifications of Witkin et al. (Witkin L B et al, J. Pharm. Exp. Ther., 133, 400, 1961) was applied. 0.2 ml of a 0.6% acetic acid solution was injected intraperitoneally, causing a typical writhing syndrome in 90% of the animals. Compounds of the invention were administered subcutaneously, 20 minutes prior to acetic acid exposure. Antianalgetic effect was determined by the formula, which is shown below, and is expressed in % values. (number of writhings in treatment group (5′)/number of writhings in control group (5′))×100

[3] = system: carrageenan-induced rat paw edema; test: Inhibition of carrageenan-induced rat paw edema; format: in vivo
Description: Carrageenan-induced rat paw edema has been extensively used in the evaluation of anti-inflammatory effects of various agents and it is useful in assessing the efficacy of compounds to alleviate acute inflammation (Whiteley P E, Dalrymple S A (1998) Models of inflammation: carrageenan-induced paw edema in the rat, in Current Protocols in Pharmacology (Enna S J, Williams M, Ferkany J W, Kenakin T, Porsolt R E, Sullivan J P eds) pp 5.4.1-5.4.3, John Wiley & Sons, New York.). Edema in the paws was induced by injecting 0.1 ml of a 1% solution of carrageenan intraplantary. […] […] Inhibitory effects are expressed in % values.

Compound COc1cccc(C=NO)c1C [Compound 1, 3-Methoxy-2-methylbenzaldehyde oxime] has an IC50 [1] of 102 µM and a melting point of 110 °C.

For ON=Cc1cccc2cccc(N3CCCC3)c12 [Compound 5, 8-Pyrrolidino-1-naphthaldehyde oxime], the inhibition at 50 µM ([1]; at 50 μM) was 32%.

ON=Cc1c(O)ccc2c1OCO2 [Compound 6, 5-Hydroxy-1,3-benzodioxole-4-carbaldehyde oxime] showed an IC50 [1] of 4.3 µM.

With CCOc1ccc2c(c1C=NO)OCO2 [Compound 7, 5-Ethoxy-1,3-benzodioxole-4-carbaldehyde oxime] the IC50 [1] was 40 µM.

C=CCOc1ccc2c(c1C=NO)OCO2 [Compound 8, 5-(Allyloxy)-1,3-benzodioxole-4-carbaldehyde oxime] showed an IC50 [1] of 95 µM.

For ON=Cc1c(Br)ccc2c1OCO2 [Compound 9, 5-Bromo-1,3-benzodioxole-4-carbaldehyde oxime], the IC50 [1] was 14.9 µM, the “Inhibition of writhing syndrome in %” value ([2]; 15 mg/kg s.c.) was 84 ± 8 % and the “Inhibition of writhing syndrome in %” value ([2]; 30 mg/kg s.c.) was 80 ± 7 %. The “Inhibition of rat paw edema in %” value ([3]; 7.5 mg/kg s.c., 60 min) was 63 ± 7 %, the “Inhibition of rat paw edema in %” value ([3]; 7.5 mg/kg s.c., 120 min) was 62 ± 6 % and the “Inhibition of rat paw edema in %” value ([3]; 7.5 mg/kg s.c., 180 min) was 66 ± 5 %. For the same compound, the “Inhibition of rat paw edema in %” value ([3]; 15 mg/kg s.c., 60 min) was 53 ± 5 %, the “Inhibition of rat paw edema in %” value ([3]; 15 mg/kg s.c., 120 min) was 52 ± 3 % and the “Inhibition of rat paw edema in %” value ([3]; 15 mg/kg s.c., 180 min) was 66 ± 7 %. The “Inhibition of rat paw edema in %” value ([3]; 30 mg/kg p.o., 60 min) was 0%, the “Inhibition of rat paw edema in %” value ([3]; 30 mg/kg p.o., 120 min) was 5 ± 1% and the “Inhibition of rat paw edema in %” value ([3]; 30 mg/kg p.o., 180 min) was 0%. For the same compound, the “Inhibition of rat paw edema in %” value ([3]; 30 mg/kg s.c., 60 min) was 54 ± 6 %, the “Inhibition of rat paw edema in %” value ([3]; 30 mg/kg s.c., 120 min) was 40 ± 5 % and the “Inhibition of rat paw edema in %” value ([3]; 30 mg/kg s.c., 180 min) was 50 ± 5 %.

In the case of CC1Oc2ccc(Br)c(C=NO)c2O1 (centres unmarked) [Compound 10, 5-Bromo-2-methyl-1,3-benzodioxole-4-carbaldehyde oxime], the inhibition at 500 µM [1] is reported as 35%.

ON=Cc1ccccc1-c1ccc2c(c1C=NO)OCO2 [Compound 12, 5-{2-[(hydroxyimino)methyl]phenyl}-1,3-benzodioxole-4-carbaldehyde oxime] showed an IC50 [1] of 180 µM.

With CCOc1c(C=NO)c(=O)n(C)c(=O)n1C [Compound 16, 6-Ethoxy-1,3-dimethyl-2,4-dioxo-1,2,3,4-tetrahydropyrimidine-5-carbaldehyde oxime] the “Inhibition of writhing syndrome in %” value ([2]; 15 mg/kg s.c.) was 86 ± 7 %, the “Inhibition of writhing syndrome in %” value ([2]; 30 mg/kg s.c.) was 96 ± 6 % and the “Inhibition of rat paw edema in %” value ([3]; 30 mg/kg s.c., 60 min) was 8 ± 1%. The “Inhibition of rat paw edema in %” value ([3]; 30 mg/kg s.c., 120 min) was 19 ± 2% and the “Inhibition of rat paw edema in %” value ([3]; 30 mg/kg s.c., 180 min) was 31 ± 4%.

COc1c(C=NO)c(=O)n(C)c(=O)n1C [Compound 17, 6-Methoxy-1,3-dimethyl-2,4-dioxo-1,2,3,4-tetrahydropyrimidine-5-carbaldehyde oxime] showed an IC50 [1] of 30 µM.

Work on CCCOc1c(C=NO)c(=O)n(C)c(=O)n1C [Compound 18, 1,3-Dimethyl-2,4-dioxo-6-propoxy-1,2,3,4-tetrahydropyrimidine-5-carbaldehyde oxime] yielded an IC50 [1] of 18 µM.

In the case of CCOc1c(C=NOC)c(=O)n(C)c(=O)n1C [Compound 19, 6-Ethoxy-1,3-dimethyl-2,4-dioxo-1,2,3,4-tetrahydropyrimidine-5-carbaldehyde O-methyloxime], the IC50 [1] is reported as 29 µM.

With CCCSc1c(C=NO)c(=O)n(C)c(=O)n1C [Compound 21, 1,3-Dimethyl-2,4-dioxo-6-(propylthio)-1,2,3,4-tetrahydropyrimidine-5-carbaldehyde oxime] the IC50 [1] was 58 µM.

With CSc1c(C=NO)c(=O)n(C)c(=O)n1C [Compound 22, 1,3-Dimethyl-6-(methylthio)-2,4-dioxo-1,2,3,4-tetrahydropyrimidine-5-carbaldehyde oxime] the IC50 [1] was 48 µM, the “Inhibition of writhing syndrome in %” value ([2]; 5 mg/kg s.c.) was 70 ± 5 % and the “Inhibition of writhing syndrome in %” value ([2]; 15 mg/kg s.c.) was 100%. The “Inhibition of rat paw edema in %” value ([3]; 7.5 mg/kg s.c., 60 min) was 15 ± 2%, the “Inhibition of rat paw edema in %” value ([3]; 7.5 mg/kg s.c., 120 min) was 55 ± 5 % and the “Inhibition of rat paw edema in %” value ([3]; 7.5 mg/kg s.c., 180 min) was 60 ± 5 %. The “Inhibition of rat paw edema in %” value ([3]; 15 mg/kg s.c., 60 min) was 60 ± 6 %, the “Inhibition of rat paw edema in %” value ([3]; 15 mg/kg s.c., 120 min) was 63 ± 7 % and the “Inhibition of rat paw edema in %” value ([3]; 15 mg/kg s.c., 180 min) was 65 ± 7 %. For the same compound, the “Inhibition of rat paw edema in %” value ([3]; 30 mg/kg p.o., 60 min) was 0%, the “Inhibition of rat paw edema in %” value ([3]; 30 mg/kg p.o., 120 min) was 21 ± 2% and the “Inhibition of rat paw edema in %” value ([3]; 30 mg/kg p.o., 180 min) was 21 ± 2%. For the same compound, the “Inhibition of rat paw edema in %” value ([3]; 30 mg/kg s.c., 60 min) was 58 ± 7 %, the “Inhibition of rat paw edema in %” value ([3]; 30 mg/kg s.c., 120 min) was 54 ± 5 % and the “Inhibition of rat paw edema in %” value ([3]; 30 mg/kg s.c., 180 min) was 72 ± 8 %.

CCSc1c(C=NO)c(=O)n(C)c(=O)n1C [Compound 23, 6-(Ethylthio)-1,3-dimethyl-2,4-dioxo-1,2,3,4-tetrahydropyrimidine-5-carbaldehyde oxime] showed an IC50 [1] of 111 µM.

Compound Cn1c(Sc2ccccc2)c(C=NO)c(=O)n(C)c1=O [Compound 24, 1,3-Dimethyl-2,4-dioxo-6-(phenylthio)-1,2,3,4-tetrahydropyrimidine-5-carbaldehyde oxime] has an IC50 [1] of 106 µM.

For CCSc1c(C=NOC)c(=O)n(C)c(=O)n1C [Compound 25, 6-(Ethylthio)-1,3-dimethyl-2,4-dioxo-1,2,3,4-tetrahydropyrimidine-5-carbaldehyde O-methyloxime], the IC50 [1] was 113 µM.

C=CCN(C)c1c(C=NO)c(=O)n(C)c(=O)n1C [Compound 27, 6-[Allyl(methyl)amino]-1,3-dimethyl-2,4-dioxo-1,2,3,4-tetrahydropyrimidine-5-carbaldehyde oxime] gave an IC50 [1] of 41 µM.

For Cn1ncc(N2CCCCC2)c(/C=N/O)c1=O [Compound 29, E-2-Methyl-3-oxo-5-piperidino-2,3-dihydropyridazine-4-carbaldehyde oxime], the IC50 [1] was 240 µM.

COc1ccc(Cn2ncc(N3CCOCC3)c(/C=N/O)c2=O)cc1 [Compound 32, E-2-(4-Methoxybenzyl)-5-morpholino-3-oxo-2,3-dihydropyridazine-4-carbaldehyde oxime] showed an IC50 [1] of 263 µM.

With Cn1nc2c(c(C=NO)c1=O)N1CCCC1CO2 (centres unmarked) [Compound 35, 3-Methyl-2-oxo-2,3,6a,7,8,9-hexahydro-6H-pyridazino[3,4-b]pyrrolo[1,2-d][1,4]oxazine-1-carbaldehyde oxime] the inhibition at 500 µM [1] was 55%.

For Cn1ncc(N2CCCC2)c(-c2ccccc2C=NO)c1=O [Compound 38, 2-(2-Methyl-3-oxo-5-pyrrolidino-2,3-dihydropyridazin-4-yl)benzaldehyde oxime], the inhibition at 500 µM [1] was 31%.

For ON=CCCc1nc(-c2ccccc2)c(-c2ccccc2)o1 [Compound 40, 3-(4,5-Diphenyl-1,3-oxazol-2-yl)propanal oxime], the IC50 [1] was 3.5 µM.

With COc1ccc2c(c1)c(CC(=O)O)c(C)n2C(=O)c1ccc(Cl)cc1 [Indomethacin, reference compound] the “Inhibition of rat paw edema in %” value ([3]; 2.5 mg/kg p.o., 60 min) was 32 ± 2 %, the “Inhibition of rat paw edema in %” value ([3]; 2.5 mg/kg p.o., 120 min) was 51 ± 4 % and the “Inhibition of rat paw edema in %” value ([3]; 2.5 mg/kg p.o., 180 min) was 53 ± 5 %.
